A short description of data set [1]: Hydrate screen: solubility in EtOH/water mixtures with different water activities. In kind it is physicochemical. The following applies: thermodynamic from solid, slurry at room temperature. As to the method: A hydrate screen of Compound of Formula (D) was performed using a mixture of anhydrous forms of Compound of Formula (D) Form II and of Compound of Formula (D) Form I and EtOH/water solvent mixtures with different water activities (Table 1). Compound of Formula (D) Form II and Compound of Formula (D) Form I (about 20 to about 40 mg) was slurried in about 1 mL of EtOH/water or water. Samples were analyzed after about 1 day and after about 2 weeks of equilibration at room temperature. Pure anhydrous Compound of Formula (D) Form I was obtained after 1 day in mixtures with about 0.2 to about 0.4 water activity. However, after 2 weeks of equilibration a new form was obtained in EtOH/water with 0.4 water activity. This form was designated as Compound of Formula (D) Form III. Compound of Formula (D) hydrate Form I was obtained in solvents with about 0.5 to about 1.0 water activity after 1 day and after about 2 weeks.

A short description of data set [2]: DVS analysis (moisture uptake). The data set is classed as physicochemical. Conditions: at 90% RH. As to the method:
Compound of Formula (D) Form I was obtained after the isothermal hold of Compound of Formula (D) hydrate Form I at about 150° C. Compound of Formula (D) Form I was also obtained after KF analysis of Compound of Formula (D) Form II and Compound of Formula (D) Form I at about 180° C. Slurries of Compound of Formula (D) hydrate Form I in water miscible organic solvents also afforded Compound of Formula (D) Form I (MeCN, MeOH, EtOH, IPA, acetone, and THF). […] (FIG. 10). DSC thermogram afforded single endotherm with onset at about 252° C. (FIG. 11). […] No form change was observed after DVS.

The conditions of data set [3]: slurry at room temperature. As to the method: A stable form screen of Compound of Formula (D) hydrate Form I was performed in an attempt to determine the stability of Compound of Formula (D) hydrate Form I in different organic solvents. […] Compound of Formula (D) hydrate Form I (about 50 to about 60 mg) was slurried in about 1 mL of chosen solvent. Solids were analyzed by XRPD after about 1 day and about 2 weeks of equilibration at room temperature.
A stable form screen of Compound of Formula (D) hydrate Form I was performed in an attempt to determine the stability of Compound of Formula (D) hydrate Form I in different organic solvents. […] Compound of Formula (D) hydrate Form I (about 50 to about 60 mg) was slurried in 1 mL of chosen solvent. Solids were analyzed by XRPD after 1 day and 2 weeks of equilibration at room temperature.

The Solubility is the dissolved amount per volume that the medium holds.

Values after ≈ are worked out from the molar mass of the structure shown. Like-named read-outs stand apart in the source and are kept apart here.

On to `Cc1cc(F)c(C(=O)O)cc1-n1cnc(C2CC2)c1` [5-(4-cyclopropyl-1H-imidazol-1-1-2-fluoro-4-methylbenzoic acid], for which the Solubility in data set [1] (EtOH/water solvent mixture, aqueous with cosolvent or surfactant or cyclodextrin, EtOH/water, water activity 0.9 (water 0.825 mL, EtOH 0.175 mL)) stood at 3930 µg/mL (≈ 15.1 mM); in data set [1] (EtOH/water solvent mixture, organic solvent or mixture, EtOH/water, water activity 0.2 (water 0.031 mL, EtOH 0.969 mL)), 7270 µg/mL (≈ 27.9 mM); in data set [1] (EtOH/water solvent mixture, organic solvent or mixture, EtOH/water, water activity 0.3 (water 0.066 mL, EtOH 0.934 mL)), 8060 µg/mL (≈ 31 mM); in data set [1] (EtOH/water solvent mixture, organic solvent or mixture, EtOH/water, water activity 0.4 (water 0.077 mL, EtOH 0.923 mL)) it was 7860 µg/mL (≈ 30.2 mM); in data set [1] (EtOH/water solvent mixture, organic solvent or mixture, EtOH/water, water activity 0.5 (water 0.097 mL, EtOH 0.903 mL)), 8160 µg/mL (≈ 31.4 mM); in data set [1] (EtOH/water solvent mixture, organic solvent or mixture, EtOH/water, water activity 0.6 (water 0.149 mL, EtOH 0.851 mL)) it was 6590 µg/mL (≈ 25.3 mM). In addition, the Solubility came out at 6880 µg/mL (≈ 26.4 mM) in data set [1] (EtOH/water solvent mixture, organic solvent or mixture, EtOH/water, water activity 0.7 (water 0.263 mL, EtOH 0.737 mL)); 6560 µg/mL (≈ 25.2 mM) in data set [1] (EtOH/water solvent mixture, organic solvent or mixture, EtOH/water, water activity 0.8 (water 0.481 mL, EtOH 0.519 mL)); 3320 µg/mL (≈ 12.8 mM) in data set [1] (water, water activity 1.0 (water 1.0 mL, EtOH 0)).

As to `Cc1cc(F)c(C(=O)O)cc1-n1cnc(C2CC2)c1` [Compound of Formula (D) Form I], the “moisture uptake (DVS; slightly hygroscopic)” value in data set [2] is reported as “about 0.5%”.

In the case of `Cc1cc(F)c(C(=O)O)cc1-n1cnc(C2CC2)c1.O` [Compound of Formula (D) Hydrate Form I], the “Solubility” value in data set [3] (solvent 2-MeTHF) is 4480 µg/mL; in data set [3] (solvent Acetone), 1990 µg/mL; in data set [3] (solvent DCM) it was 190 µg/mL; in data set [3] (solvent EtOAc), 730 µg/mL; in data set [3] (solvent EtOH) it was 6180 µg/mL; in data set [3] (solvent IPA), 2900 µg/mL. In addition, the “Solubility” value in data set [3] (solvent IPAc) was found to be 450 µg/mL; in data set [3] (solvent MeCN) it was 400 µg/mL; in data set [3] (solvent MeOH) it was 20670 µg/mL; in data set [3] (solvent THF) it was 11790 µg/mL.
